{"source": "paper PMC10394516", "about": "“The pharmacokinetic profile of brensocatib and its effect on pharmacodynamic biomarkers including NE, PR3, and CatG in various rodent species” (Frontiers in Pharmacology, 2023)", "key": {"NE": {"test_system": "NE", "test": "Bone marrow NE activity after repeated dosing, C57BL/6 mice", "format": "in vivo", "settings": "7 days", "description": "(§1) Briefly, animals were weighed and randomized into different treatment groups. In total, three different dosing levels of brensocatib were tested in each species and strain; each QD dosing level was equivalent to 1.5-times the matching daily BID dose. For BID dosing, the second daily dose was administered 8-h post the morning dose. C57BL/6 mice were dosed either BID or QD for 7 consecutive days at 0/0, 0.5/0.75, 2/3, and 20/30 mg/kg/day (BID/QD). BALB/c mice were dosed for 7 consecutive days at 0/0, 0.2/0.3, 2/3, and 20/30 mg/kg/day (BID/QD). SD rats were dosed for 9 consecutive days at 0/0, 0.2/0.3, 2/3, and 20/30 mg/kg/day (BID/QD). Wistar rats were dosed for 7 consecutive days at 0/0, 0.2/0.3, 2/3, and 20/30 mg/kg/day (BID/QD).\n(§2) At the completion of the study, animals were sacrificed 16–24 h post their final dose. The hind limb bones (femurs and tibias) were collected at necropsy for bone marrow analysis of NSP activities by kinetic enzymatic assays ([Basso et al., 2022]). See section Quantification of Bone Marrow NSP Activities for details.\n(§3) For the mice, each animal had the femurs and tibias of both hind limbs harvested. For the rat, the femur and tibia from a single hind limb per animal was harvested. Bones were kept on wet ice until processing for bone marrow collection. In brief, bone cutters were used to cut the epiphysis (knobby ends) off the long bones to expose the bone marrow filled cavity. Each bone cavity was then flushed with 5 mL/bone (mouse) or 10 mL/bone (rat) of ice-cold RPMI media through a […] and collected in a 50-mL conical tube. Cells were spun down at 2,500 × g at 4°C for 5 min and the supernatant was aspirated. After which, bone marrow cells were lysed with 1X red blood cell (RBC) lysis buffer (Abcam, ab204733) to eliminate contaminating RBCs and washed with PBS to remove any residual RBC lysis buffer. The resulting white blood cells (WBC) were subsequently lysed with 1% (v/v) Triton X-100 in PBS. Lysates were added to 96-well plates and stored at −80°C until NSP analyses.\n(§4) Bone marrow lysates prepared as described above were diluted and plated onto 96-well assay plates to quantify NSP activities as described previously ([Basso et al., 2022]). Briefly, peptide substrates for NE (N-Methoxysuccinyl-Ala-Ala-Pro-Val-7-amido-4-methylcoumarin; Sigma; St. Louis, MO; Excitation/Emission at 350/450 nm), PR3 ((7-Methoxycoumarin-4-yl)acetyl-lysyl-(picolinoyl)-Tyr-Asp-Ala-Lys-Gly-Asp-N-3-(2-4-dinitrophenyl)-2-3-diaminopropyonyl-NH2); GenScript; Piscataway, NJ; Excitation/Emission at 340/430 nm), and CatG (N-Succinyl-Ala-Ala-Pro-Phe p nitroanilide; Sigma; Absorbance at 405 nm) were added at a final assay concentration of 100 μM, 40 μM, and 200 μM, respectively, and either fluorescence or absorbance was quantified using a Synergy microplate reader (BioTek; Winooski, VT). The specific NSP activity in each sample was calculated as the total activity minus the activity in the presence of a specific NSP inhibitor (if used), including elastase inhibitor (Abcam) for NE, sivelestat (Abcam) for PR3, and cathepsin G inhibitor I (Cayman Chemical; Ann Arbor, MI) for CatG. NSP concentrations were interpolated based on their activities relative to the standard curves created using active human NE protein (Sigma), active human PR3 protein (Sigma), and active human CatG protein (Sigma), respectively. Due to unavailability of commercial mouse and/or rat NE, PR3, and CatG proteins, the corresponding human proteins were used instead since their catalytic ability is considered to be conserved across species. A portion of each cell lysate sample was retained for protein quantification using a Pierce™ BCA Protein Assay Kit (Thermo Fisher). The NSP activities were normalized for the cell lysate protein concentrations.\n(§5) The Pierce™ BCA Protein Assay Kit was used to measure the total protein of the samples after lysis to allow for subsequent normalization. […]"}, "PR3 [1]": {"test_system": "PR3", "test": "Bone marrow PR3 activity after repeated dosing, Sprague Dawley rats", "format": "in vivo", "settings": "for Reduction of PR3 activity vs vehicle / Change From Vehicle Control (%) PR3: 9 days", "description": "as §1, §2, §3, §4, §5"}, "PR3 [2]": {"test_system": "PR3", "design": "method as in Cipolla et al., 2023", "settings": "Phase 2 trial in NCFBE (WILLOW); ref Cipolla et al., 2023; cited from earlier work"}, "[3]": {"design": "method as in Chalmers et al., 2020", "settings": "Phase 2 trial in NCFBE (WILLOW, NCT03218917), compared to placebo; ref Chalmers et al., 2020; cited from earlier work"}, "[4]": {"settings": "BID highest dose (20 mg/kg/day)"}}}
{"compound": "Cn1c(=O)oc2ccc(-c3ccc(C[C@@H](C#N)NC(=O)[C@@H]4CNCCCO4)cc3)cc21", "note": "[brensocatib]", "values": [{"measurement": "Reduction of NE activity vs vehicle", "setting": "NE; [4]", "result": 85, "unit": "%"}, {"measurement": "Reduction of NE activity vs vehicle", "setting": "NE; QD highest dose (30 mg/kg/day)", "result": 71, "unit": "%"}, {"measurement": "Change From Vehicle Control (%) NE", "setting": "NE; oral BID 0.5 mg/kg/day, 16 h post final dose", "result": "−20% (p = 0.1494)"}, {"measurement": "Change From Vehicle Control (%) NE", "setting": "NE; oral BID 2 mg/kg/day, 16 h post final dose", "result": "−71% (p < 0.0001)"}, {"measurement": "Change From Vehicle Control (%) NE", "setting": "NE; oral BID 20 mg/kg/day, 16 h post final dose", "result": "−85% (p < 0.0001)"}, {"measurement": "Change From Vehicle Control (%) NE", "setting": "NE; oral QD 0.75 mg/kg/day, 24 h post final dose", "result": "−9% (p = 0.8092)"}, {"measurement": "Change From Vehicle Control (%) NE", "setting": "NE; oral QD 3 mg/kg/day, 24 h post final dose", "result": "−55% (p < 0.0001)"}, {"measurement": "Change From Vehicle Control (%) NE", "setting": "NE; oral QD 30 mg/kg/day, 24 h post final dose", "result": "−71% (p < 0.0001)"}, {"measurement": "Reduction of PR3 activity vs vehicle", "setting": "PR3 [1]; [4]", "result": 68, "unit": "%"}, {"measurement": "Reduction of PR3 activity vs vehicle", "setting": "PR3 [1]; QD highest dose (30 mg/kg/day)", "result": 72, "unit": "%"}, {"measurement": "Combined BID and QD percent reduction, PR3", "setting": "PR3 [1]; highest dose level 20/30 (BID/QD) mg/kg/day", "result": 70, "unit": "%"}, {"measurement": "Change From Vehicle Control (%) PR3", "setting": "PR3 [1]; oral BID 0.2 mg/kg/day", "result": "+23% (p = 0.8292)"}, {"measurement": "Change From Vehicle Control (%) PR3", "setting": "PR3 [1]; oral BID 2 mg/kg/day", "result": "−31% (p = 0.6727)"}, {"measurement": "Change From Vehicle Control (%) PR3", "setting": "PR3 [1]; oral BID 20 mg/kg/day", "result": "−68% (p = 0.0907)"}, {"measurement": "Change From Vehicle Control (%) PR3", "setting": "PR3 [1]; oral QD 0.3 mg/kg/day", "result": "−34% (p = 0.4869)"}, {"measurement": "Change From Vehicle Control (%) PR3", "setting": "PR3 [1]; oral QD 3 mg/kg/day", "result": "−59% (p = 0.0837)"}, {"measurement": "Change From Vehicle Control (%) PR3", "setting": "PR3 [1]; oral QD 30 mg/kg/day", "result": "−72% (p = 0.0285)"}, {"measurement": "sputum PR3 activity", "setting": "PR3 [2]", "result": "Dose-dependent reductions"}, {"measurement": "time to first exacerbation", "setting": "[3]", "result": "prolonged"}]}
